Key:
[1] = molecular target: Dihydroorotate dehydrogenase (quinone), mitochondrial (Homo sapiens, UniProt Q02127); assay: Inhibition of human dihydroorotate dehydrogenase
[2] = Half life in rat at 1 mg/kg, iv; format: ADME, organism-based; set-up: dose 1 mg/kg, route intravenous; details: in vivo
PBMC = assay: Antiproliferative activity against PHA-stimulated human PBMC assessed as inhibition of […] after 72 hrs by BrdU-ELISA assay; format: functional, cell-based
[3] = Metabolic stability in human microsomes assessed as compound degradation at 5 uM after 30 mins; format: ADME, Microsome; details: read-out: Drug metabolism
Rattus norvegicus [4] = assay: Antiinflammatory activity in rat Freund's adjuvant induced-arthritis model assessed as inhibition of paw edema administered 10 days post challenge once daily for 10 days; format: functional; details: 240 h
[5] = Metabolic stability in rat microsomes assessed as compound degradation at 5 uM after 30 mins; format: ADME, Microsome; details: read-out: Drug metabolism
[6] = molecular target: Dihydroorotate dehydrogenase (quinone), mitochondrial (Rattus norvegicus, UniProt Q63707); assay: Inhibition of rat dihydroorotate dehydrogenase
Sequence of Dihydroorotate dehydrogenase (quinone), mitochondrial (Rattus norvegicus, UniProt Q63707) (Q63707 whole entry): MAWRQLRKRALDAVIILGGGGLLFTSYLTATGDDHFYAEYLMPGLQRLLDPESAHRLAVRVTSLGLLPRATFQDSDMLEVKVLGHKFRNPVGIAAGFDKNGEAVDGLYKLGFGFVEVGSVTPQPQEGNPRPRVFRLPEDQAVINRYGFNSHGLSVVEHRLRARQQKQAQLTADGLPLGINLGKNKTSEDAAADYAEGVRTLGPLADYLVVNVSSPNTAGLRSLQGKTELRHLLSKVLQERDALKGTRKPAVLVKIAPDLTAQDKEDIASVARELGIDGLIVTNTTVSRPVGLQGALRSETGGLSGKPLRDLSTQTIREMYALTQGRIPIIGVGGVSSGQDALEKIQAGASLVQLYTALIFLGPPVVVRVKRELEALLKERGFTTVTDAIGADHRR

Rattus norvegicus [7] = assay: Antiinflammatory activity in rat Freund's adjuvant induced-arthritis model assessed as inhibition of paw edema at 10 mg/kg qd administered 10 days post challenge for 10 consecutive days; format: functional; details: 240 h
[8] = Half life in human plasma; format: ADME, organism-based

Sequence of Dihydroorotate dehydrogenase (quinone), mitochondrial (Homo sapiens, UniProt Q02127) (Q02127 whole entry): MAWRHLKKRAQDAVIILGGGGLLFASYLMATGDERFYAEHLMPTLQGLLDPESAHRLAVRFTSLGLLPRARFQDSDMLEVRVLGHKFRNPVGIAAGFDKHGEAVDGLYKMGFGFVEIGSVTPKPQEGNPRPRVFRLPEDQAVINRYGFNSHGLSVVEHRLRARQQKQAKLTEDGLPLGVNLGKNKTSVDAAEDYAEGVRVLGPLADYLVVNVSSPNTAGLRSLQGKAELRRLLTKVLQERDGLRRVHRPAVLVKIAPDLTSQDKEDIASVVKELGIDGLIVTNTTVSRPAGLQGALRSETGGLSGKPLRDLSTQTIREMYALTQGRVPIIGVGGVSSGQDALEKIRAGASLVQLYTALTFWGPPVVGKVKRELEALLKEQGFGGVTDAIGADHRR

Compound	IC50 [1] [nM]	IC50 (PBMC) [nM]	further results
CC/C(O)=C(\C#N)C(=O)Nc1ccc(OS(=O)(=O)C(F)(F)F)c(C(=O)OC)c1	93		half-life [2]: 2 h
CC/C(O)=C(\C#N)C(=O)Nc1ccc(-c2ccc(F)cc2F)c(C(=O)OC)c1	31	6000	
CC/C(O)=C(\C#N)C(=O)Nc1ccc(-c2ccc(Cl)cc2)c(C(=O)OC)c1	45	13000	
CC/C(O)=C(\C#N)C(=O)Nc1ccc(-c2cc(F)c(F)c(F)c2)c(C(=O)OC)c1	137	19000	
CC/C(O)=C(\C#N)C(=O)Nc1ccc(-c2cccc(OC3CCC3)c2)c(C(=O)OC)c1	31		
CC/C(O)=C(\C#N)C(=O)Nc1ccc(-c2ccc(F)c(F)c2)c(C(=O)OC)c1	97		
CC/C(O)=C(\C#N)C(=O)Nc1ccc(-c2cccc(Cl)c2)c(C(=O)OC)c1	31	34000	
CC/C(O)=C(\C#N)C(=O)Nc1ccc(-c2ccccc2)c(C(=O)OC)c1	73		
CC/C(O)=C(\C#N)C(=O)Nc1ccc(-c2cccc(OC)c2)c(C(=O)OC)c1	26		
CC/C(O)=C(\C#N)C(=O)Nc1ccc(-c2ccc3c(c2)OCO3)c(C(=O)OC)c1	76	18500	
C/C(O)=C(\C#N)C(=O)Nc1ccc(C(F)(F)F)cc1 [TERIFLUNOMIDE]		46000	metabolised at 0.5 h, 5 µM [3]: 3%; ED50 (Rattus norvegicus [4]): 2.88 mg/kg; half-life [2]: 14.1 h; metabolised at 0.5 h, 5 µM [5]: 0%
CC/C(O)=C(\C#N)C(=O)Nc1ccc(-c2cccc(OC(F)F)c2)c(C(=O)OC)c1	34		
CC/C(O)=C(\C#N)C(=O)Nc1ccc(OS(=O)(=O)C(F)(F)F)cc1	150		half-life [2]: 8 h
CC/C(O)=C(\C#N)C(=O)Nc1ccc(-c2cccnc2)c(C(=O)OC)c1	40		
CC/C(O)=C(\C#N)C(=O)Nc1ccc(-c2ccc(F)nc2)c(C(=O)OC)c1	150		
CC/C(O)=C(\C#N)C(=O)Nc1ccc(-c2ccc(F)cc2C)c(C(=O)OC)c1	49		
CCOc1cccc(-c2ccc(NC(=O)/C(C#N)=C(\O)CC)cc2C(=O)OC)c1	59		
CC/C(O)=C(\C#N)C(=O)Nc1ccc(-c2ccc3c(c2)OCCO3)c(C(=O)OC)c1	66		
CC/C(O)=C(\C#N)C(=O)Nc1ccc(-c2ccccc2Cl)c(C(=O)OC)c1	52		
CC/C(O)=C(\C#N)C(=O)Nc1ccc(-c2ccc(F)cc2OC)c(C(=O)OC)c1	66		
CC/C(O)=C(\C#N)C(=O)Nc1ccc(-c2cccc(F)c2)c(C(=O)OC)c1	198		
CC/C(O)=C(\C#N)C(=O)Nc1ccc(-c2ccc(F)cc2)c(C(=O)OC)c1	110	2000	metabolised at 0.5 h, 5 µM [3]: 17%; IC50 [6]: 350 nM; inhibition in vivo at 10 mg/kg (Rattus norvegicus [7]): 49%; half-life [8]: 336 h; half-life [2]: 0.9 h; metabolised at 0.5 h, 5 µM [5]: 19%
CC/C(O)=C(\C#N)C(=O)Nc1ccc(-c2cccc(OC(F)(F)F)c2)c(C(=O)OC)c1	27	37000	
